PubChem BioAssay (NCI)
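The compound was tested at five concentrations on cells cultured in 96-well plates, with a 48-hour exposure period. At the GI50, growth is halved. Definition used: TGI = concentration required for complete inhibition of growth.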

Columns and labels:
Assay in all cases: NCI tumour cell line growth inhibition, 48 h
[1] = tested on: DU-145 prostate
[2] = tested on: SK-MEL-28 melanoma
[3] = tested on: IGROV1 ovarian
[4] = tested on: MCF7 breast
[5] = tested on: SR leukemia
[6] = tested on: A549 NSCLC
[7] = tested on: EKVX NSCLC
[8] = tested on: RPMI-8226 leukemia
[9] = tested on: PC-3 prostate
[10] = tested on: ACHN renal
[11] = tested on: COLO 205 colon
[12] = tested on: SF-268 CNS
[13] = tested on: M14 melanoma
[14] = tested on: CAKI-1 renal
[15] = tested on: SN12C renal
[16] = tested on: SNB-75 CNS
[17] = tested on: HCC-2998 colon
[18] = tested on: CCRF-CEM leukemia
[19] = tested on: HS 578T breast
[20] = tested on: SNB-19 CNS
[21] = tested on: NCI-H23 lung
[22] = tested on: SK-OV-3 ovarian
[23] = tested on: RXF 393 renal
[24] = tested on: A498 renal
[25] = tested on: SW-620 colon
[26] = tested on: NCI-H460 lung
[27] = tested on: UACC-62 melanoma
[28] = tested on: SK-MEL-2 melanoma
[29] = tested on: T-47D breast
[30] = tested on: MALME-3M melanoma
[31] = tested on: HL-60(TB) leukemia
[32] = tested on: UO-31 renal
[33] = tested on: SK-MEL-5 melanoma
[34] = tested on: NCI/ADR-RES ovarian
[35] = tested on: OVCAR-5 ovarian
[36] = tested on: NCI-H522 lung
[37] = tested on: OVCAR-4 ovarian
[38] = tested on: MOLT-4 leukemia
[39] = tested on: MDA-MB-231 breast
[40] = tested on: TK-10 renal
[41] = tested on: HOP-62 NSCLC
[42] = tested on: KM12 colon
[43] = tested on: UACC-257 melanoma
[44] = tested on: K-562 leukemia
[45] = tested on: OVCAR-8 ovarian
[46] = tested on: U251 CNS
[47] = tested on: LOX IMVI melanoma
[48] = tested on: HOP-92 NSCLC
[49] = tested on: 786-0 renal
[50] = tested on: SF-539 CNS
[51] = tested on: HCT-15 colon
[52] = tested on: MDA-MB-435
[53] = tested on: SF-295 CNS
[54] = tested on: BT-549 breast
[55] = tested on: NCI-H226 lung
[56] = tested on: HT29 colon
[57] = tested on: HCT-116 colon

**Q.** `O=C1CCC(N2C(=O)c3ccc(NS(=O)(=O)c4ccccc4OC(F)(F)F)cc3C2=O)C(=O)N1` (stereo unspecified) was tested. Which GI50 [1] did it give?
**A.** > 100000 nM

**Q.** What about the TGI [1] of the same compound?
**A.** > 100000 nM

**Q.** And the GI50 [2]?
**A.** 7370 nM

**Q.** And the TGI [2]?
**A.** > 100000 nM

**Q.** And the GI50 [3]?
**A.** 465 nM

**Q.** And the TGI [3]?
**A.** > 100000 nM

**Q.** And the GI50 [4]?
**A.** 1680 nM

**Q.** What about the TGI [4] of the same compound?
**A.** > 100000 nM

**Q.** What about the GI50 [5] of the same compound?
**A.** 10800 nM

**Q.** And the TGI [5]?
**A.** > 100000 nM

**Q.** And the GI50 [6]?
**A.** 7000 nM

**Q.** What about the TGI [6] of the same compound?
**A.** > 100000 nM

**Q.** What about the GI50 [7] of the same compound?
**A.** > 100000 nM

**Q.** What about the TGI [7] of the same compound?
**A.** > 100000 nM

**Q.** And the GI50 [8]?
**A.** 7630 nM

**Q.** And the TGI [8]?
**A.** > 100000 nM

**Q.** And the GI50 [9]?
**A.** 455 nM

**Q.** And the TGI [9]?
**A.** > 27800 nM

**Q.** What about the GI50 [10] of the same compound?
**A.** 8700 nM

**Q.** What about the TGI [10] of the same compound?
**A.** > 100000 nM

**Q.** And the GI50 [11]?
**A.** 857 nM

**Q.** And the TGI [11]?
**A.** > 27200 nM

**Q.** And the GI50 [12]?
**A.** 911 nM

**Q.** And the TGI [12]?
**A.** > 100000 nM

**Q.** And the GI50 [13]?
**A.** 1590 nM

**Q.** And the TGI [13]?
**A.** > 100000 nM

**Q.** And the GI50 [14]?
**A.** 456 nM

**Q.** What about the TGI [14] of the same compound?
**A.** > 100000 nM

**Q.** What about the GI50 [15] of the same compound?
**A.** 1140 nM

**Q.** What about the TGI [15] of the same compound?
**A.** > 100000 nM

**Q.** What about the GI50 [16] of the same compound?
**A.** 110 nM

**Q.** What about the TGI [16] of the same compound?
**A.** 2680 nM

**Q.** And the GI50 [17]?
**A.** 729 nM

**Q.** And the TGI [17]?
**A.** > 70800 nM

**Q.** And the GI50 [18]?
**A.** 31.2 nM

**Q.** And the GI50 [19]?
**A.** 58.2 nM

**Q.** What about the TGI [19] of the same compound?
**A.** 1430 nM

**Q.** And the GI50 [20]?
**A.** 843 nM

**Q.** And the TGI [20]?
**A.** > 100000 nM

**Q.** What about the GI50 [21] of the same compound?
**A.** > 100000 nM

**Q.** What about the TGI [21] of the same compound?
**A.** > 100000 nM

**Q.** And the GI50 [22]?
**A.** 2600 nM

**Q.** And the TGI [22]?
**A.** > 100000 nM

**Q.** What about the GI50 [23] of the same compound?
**A.** 609 nM

**Q.** What about the TGI [23] of the same compound?
**A.** 7950 nM

**Q.** What about the GI50 [24] of the same compound?
**A.** 266 nM

**Q.** What about the TGI [24] of the same compound?
**A.** 1750 nM

**Q.** What about the GI50 [25] of the same compound?
**A.** 312 nM

**Q.** And the TGI [25]?
**A.** > 100000 nM

**Q.** And the GI50 [26]?
**A.** > 100000 nM

**Q.** What about the TGI [26] of the same compound?
**A.** > 100000 nM

**Q.** What about the GI50 [27] of the same compound?
**A.** 16100 nM

**Q.** And the TGI [27]?
**A.** > 100000 nM

**Q.** What about the GI50 [28] of the same compound?
**A.** 1670 nM

**Q.** And the TGI [28]?
**A.** 38400 nM

**Q.** And the GI50 [29]?
**A.** 165 nM

**Q.** And the GI50 [30]?
**A.** 147 nM

**Q.** And the TGI [30]?
**A.** 3490 nM

**Q.** And the GI50 [31]?
**A.** 27.9 nM

**Q.** And the TGI [31]?
**A.** 350 nM

**Q.** What about the GI50 [32] of the same compound?
**A.** 306 nM

**Q.** And the TGI [32]?
**A.** > 29100 nM

**Q.** And the GI50 [33]?
**A.** 2560 nM

**Q.** And the TGI [33]?
**A.** > 27000 nM

**Q.** And the GI50 [34]?
**A.** 700 nM

**Q.** What about the TGI [34] of the same compound?
**A.** > 100000 nM

**Q.** What about the GI50 [35] of the same compound?
**A.** 12600 nM

**Q.** What about the TGI [35] of the same compound?
**A.** > 100000 nM

**Q.** What about the TGI [36] of the same compound?
**A.** > 100000 nM

**Q.** What about the GI50 [37] of the same compound?
**A.** 2610 nM

**Q.** And the TGI [37]?
**A.** > 100000 nM

**Q.** What about the GI50 [38] of the same compound?
**A.** 31.4 nM

**Q.** And the TGI [38]?
**A.** 341 nM

**Q.** And the GI50 [39]?
**A.** 82 nM

**Q.** What about the TGI [39] of the same compound?
**A.** 2260 nM

**Q.** What about the GI50 [40] of the same compound?
**A.** 2720 nM

**Q.** What about the TGI [40] of the same compound?
**A.** > 100000 nM

**Q.** What about the GI50 [41] of the same compound?
**A.** 187 nM

**Q.** And the TGI [41]?
**A.** 2460 nM

**Q.** What about the GI50 [42] of the same compound?
**A.** 1970 nM

**Q.** What about the TGI [42] of the same compound?
**A.** > 100000 nM

**Q.** And the GI50 [43]?
**A.** > 100000 nM

**Q.** What about the TGI [43] of the same compound?
**A.** > 100000 nM

**Q.** And the GI50 [44]?
**A.** 3010 nM

**Q.** And the TGI [44]?
**A.** > 100000 nM

**Q.** What about the GI50 [45] of the same compound?
**A.** 159 nM

**Q.** What about the TGI [45] of the same compound?
**A.** > 100000 nM

**Q.** And the GI50 [46]?
**A.** > 100000 nM

**Q.** And the TGI [46]?
**A.** > 100000 nM

**Q.** And the GI50 [47]?
**A.** > 100000 nM

**Q.** And the TGI [47]?
**A.** > 100000 nM

**Q.** What about the GI50 [48] of the same compound?
**A.** 22 nM

**Q.** And the TGI [48]?
**A.** 161 nM

**Q.** And the GI50 [49]?
**A.** 668 nM

**Q.** And the TGI [49]?
**A.** > 100000 nM

**Q.** What about the GI50 [50] of the same compound?
**A.** > 50700 nM

**Q.** What about the TGI [50] of the same compound?
**A.** > 100000 nM

**Q.** And the GI50 [51]?
**A.** 100 nM

**Q.** And the TGI [51]?
**A.** > 68000 nM

**Q.** And the GI50 [52]?
**A.** 6340 nM

**Q.** And the TGI [52]?
**A.** > 100000 nM

**Q.** And the GI50 [53]?
**A.** 4380 nM

**Q.** And the TGI [53]?
**A.** > 100000 nM

**Q.** What about the GI50 [54] of the same compound?
**A.** 120 nM

**Q.** And the TGI [54]?
**A.** 1610 nM

**Q.** What about the GI50 [55] of the same compound?
**A.** 1120 nM

**Q.** What about the TGI [55] of the same compound?
**A.** > 100000 nM

**Q.** What about the GI50 [56] of the same compound?
**A.** 7700 nM

**Q.** And the TGI [56]?
**A.** > 100000 nM

**Q.** What about the GI50 [57] of the same compound?
**A.** > 100000 nM

**Q.** What about the TGI [57] of the same compound?
**A.** > 100000 nM
